Measured values from patent publication US20240208972A1, “LRRK2 INHIBITORS AND USES THEREOF” (NEURON23, INC., priority 2022, published 2024).

Assays:
[1] = Human hepatocyte stability, in vitro h-Hept CLpredict; assay type: in vitro ADME; conditions: cryopreserved hepatocytes, predicted hepatic clearance, cells without asterisk, read-out: hHep Cl
Method: The compounds disclosed herein were tested in vitro on human hepatocyte for in vitro h-Hept CLpredict according to the following procedures. • 1. Compound sock solutions were prepared by dissolving test compound and positive control in dimethyl sulfoxide (DMSO) at a concentration of 10 mM. Stock solutions were then diluted to 100 μM solutions by combining 198 μL of 50% acetonitrile/50% water with 2 μL of the 10 mM stock stock in separate conical tubes. • 2. Cryopreserved hepatocytes were prepared as follows: Incubation medium (William's E Medium supplemented with GlutaMAX) and hepatocyte thawing medium were placed in a 37° C. water bath and allowed to warm for at least 15 minutes prior to use. Cryopreserved hepatocytes were removed from storage, ensuring that vials remained at cryogenic temperatures until thawed. Cells were thawed by placing the vials in a 37° C. water bath and gently shaking the vials for 2 minutes. After thawing was completed, vials were sprayed with 70% ethanol and transferred to a biosafety cabinet. Hepatocytes were transferred into 50 mL conical tube containing thawing medium using wide-bore pipette tips. Tubes were placed into a centrifuge and spun at 100 g for 10 minutes. Then thawing medium was aspirated and hepatocytes were resuspended in enough incubation medium to yield−1.5×10^6 cells/mL. Cells were counted using acridine orange and propidium iodide (AO/PI) staining, and the viable cell density was determined. Cells were diluted with incubation medium to a working cell density of 0.5×10^6 viable cells/mL. • 3. To determine hepatocyte stability, 198 μL of hepatocytes were transferred into each well of a 96-well non-coated plate. Plates were placed in an incubator to allow the hepatocytes to warm for 10 minutes. • 4. The reaction was started by transferring 2 μL of the 100 μM test compound or positive control solution into respective wells of the 96-well non-coated plates. Plates were returned to the incubator until 25 μL aliquots of well contents were sampled at time points of 0, 15, 30, 60, 90 and 120 minutes. The aliquots were then mixed with 6 volumes (150 μL) of acetonitrile containing internal standard, IS (100 nM alprazolam, 200 nM caffeine and 100 nM tolbutamide) to terminate the reaction and vortexed for 5 minutes. After centrifuging the samples for 45 minutes at 3,220 g, aliquots of 100 μL of the supernatant were taken and diluted with 100 μL of ultra-pure water. The mixture was used for LC/MS/MS analysis. All incubations were performed in duplicate.
All calculations were carried out using Microsoft Excel. Peak area ratios (PAR) were determined from extracted ion chromatograms. The in vitro half-life (t1/2) of parent compound was determined by regression analysis of the percent parent disappearance vs. time curve as follows:
The in vitro half-life (in vitro t1/2) was determined from the slope value:
Conversion of the in vitro t1/2 (in minutes) into the in vitro intrinsic clearance (in vitro CLint, in μL/min/1×10^6 cells) was done using the following equation (mean of duplicate determinations): […]
The scaled-up intrinsic clearance (CLint, mL/min/kg), predicted hepatic clearance (CLH, mL/min/kg) and hepatic extraction ratio (ER) were calculated using the following equations:
CLint=(0.693/t1/2)*(1/(hepatocyte concentration (0.5*10^6 cells/mL))*scaling factors (Table (A)
• CLHept-predict=(QH*Scaled-up CLint*fub)/(QH+Scaled-up CLint*fub) • ER=CLH/QH • Where: • V=incubation volume (0.2 mL) • N=number of hepatocytes per well (0.1*10^6 cells) • QH=hepatic blood flow (mL/min/kg) (Table (A)
• fub=fraction of unbound drug in plasma, assumed to be 1 • Values used for calculation of the predicted hepatic clearance parameters data processing rules are outlined in the following tables (A) (B)

[2] = target: T1, wt human LRRK2, catalytic site (Homo sapiens, UniProt Q5S007); assay: TR-FRET LanthaScreen Tb Kinase Activity Assay, LRRK2 kinase inhibition; assay type: biochemical; conditions: 2 nM wt human LRRK2, 400 nM peptide, 38 μM ATP
T1 construct: wt human LRRK2, catalytic site, catalytic site (ThermoFisher/USA); purchased ThermoFisher
T1 sequence (Q5S007 1879-2138 limits assumed): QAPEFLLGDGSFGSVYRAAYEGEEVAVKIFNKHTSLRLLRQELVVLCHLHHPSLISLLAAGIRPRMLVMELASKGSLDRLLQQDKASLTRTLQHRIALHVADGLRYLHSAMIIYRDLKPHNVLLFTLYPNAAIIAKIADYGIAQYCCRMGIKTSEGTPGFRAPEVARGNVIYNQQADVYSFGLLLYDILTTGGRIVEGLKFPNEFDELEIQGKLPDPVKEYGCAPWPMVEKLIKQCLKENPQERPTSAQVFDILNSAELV
Method: The compounds disclosed herein were tested for their inhibitory effect on LRRK2 kinase according to the following procedures.
The protocol for basic TR-FRET LanthaScreen Tb Kinase Activity Assay inhibitor studies is as follows. LanthaScreen Kinase Activity Assays (ThermoFisher/USA) to evaluate inhibitors were performed by addition of 100 nL of test compound in the corresponding DMSO dilutions/5 L of kinase/fluorescein-ERM(LRRKtide) peptide mixture, Compound & kinase were pre-incubated for 15 minutes, then 5 μl of ATP into 384 well small volume plates. After incubation for 120 minutes at room temperature, the detection reagents containing Tb-anti-pLRRKtide antibody were added to monitor the phosphrylation level of peptide. Then, after 60 min minutes incubation at room temperature plates were read in Envision. Data analysis of emission ratios was according to the LanthaScreen Tb Kinase Activity Assay protocol.
Kinase and assay components were adjusted to final concentrations according to the kit protocol. For LRRK2: 2 nM wt human LRRK2, catalytic site, catalytic site (ThermoFisher/USA), 400 nM peptide, 38 μM ATP in 1× Kinase Buffer A.
Basic protocol for TR-FRET LanthaScreen Tb Kinase Activity Assay inhibitor studies involved two steps: Enzymatic step: Addition of 100 nl of test compound in corresponding DMSO dilutions, 5 μl of kinase/substrate mixture, 5 μl of ATP into 384 well small volume plates. Incubation for 120 minutes at room temperature.
Detection step: Addition of 10 μl EDTA & antibody, read plate after 60 minutes. Data analysis of emission ratios according to KinEASE assay protocol.
Kinase and assay components were adjusted to final concentrations according to the kit protocol.

Caco-2 cells = assay: Caco-2 bidirectional permeability; assay type: in vitro ADME; conditions: for Caco-2 A2B (10^−6 cm/s): A to B; for Caco-2 A2B (10^−6 cm/s) / Caco-2 B2A (10^−6 cm/s): HBSS pH 7.4, 2 hours; for Caco-2 B2A (10^−6 cm/s): B to A; for Caco-2 ER: Efflux Ratio=Papp (BA)/Papp (AB)
Method: The compounds disclosed herein were tested in vitro on CaCo2 cell penetration according to the following procedures.
Test compounds were prepared in dimethyl sulfoxide (DMSO).
Caco-2 cells purchased from ATCC were seeded onto […] (PET) in 96-well Corning Insert plates at 1×10^5 cells/cm^2. The media were refreshed every 4 to 5 days until the 21st to 28th day for confluent cell monolayer formation.
Experiments were run in duplicate using a HBSS transport buffer containing 10 mM HEPES at pH 7.4. The test article TEST COMPOUND was tested bi-directionally at […] concentrations, the control compound digoxin was tested bi-directionally at 10 μM, and nadolol and metoprolol were tested at 2.0 μM in the A to B direction. Final DMSO concentrations were adjusted to less than 1%. The plates were incubated for 2 hours in a CO2 incubator at 37±1° C. with 5% CO2 at saturated humidity without shaking. Following incubation, samples were mixed with acetonitrile containing internal standard and centrifuged at 3200×g for 10 minutes. Then 200 μL of supernatant was taken from all samples. For TEST COMPOUND and digoxin, the supernatant was diluted with 200 μL of ultra-pure water and for nadolol and metoprolol, the supernatant was diluted with 600 μL of ultra-pure water. All samples were analyzed by LC-MS/MS. Concentrations of TEST COMPOUND and control compounds were determined in starting solutions, donor well solutions, and receiver well solutions using peak area ratios (PAR) of analyte to internal standard. After the transport assay, a lucifer yellow rejection assay was run to determine the Caco-2 cell monolayer integrity.
The apparent permeability (Papp), the % recovery and the efflux ratio were calculated as follows: • 1. Papp=(dCr/dt)×Vr/(A×C0) • 2. % Recovery=100×[(Vr×Cr)+(Vd×Cd)]/(Vd×C0) • 3. Efflux Ratio=Papp (BA)/Papp (AB) • Where: • dCr/dt is the slope of the cumulative concentration in the receiver compartment versus time (mM/s). • Vr and Vd is the volume in the receiver and donor compartments (0.075 mL on the apical side, 0.25 mL on the basolateral side), respectively. • A is the surface area of the cell monolayer (0.0804 cm^2). • C0 is the measured donor concentrations (μM) at the beginning of the experiment. • Cd and Cr are the final measured concentrations in the donor and receiver compartments, respectively.
The cell monolayer tight junction integrity assay was conducted after completion of the transport assay by adding Lucifer Yellow (LY) to the apical wells at 100 μM and incubating the cells for 30 minutes. Following incubation, tight junction integrity was assessed from LY concentrations in the basolateral compartment (receiver well) and the apical compartment (donor well) using fluorescence detection as follows: […]

## CCOC[C@H]1CN(c2cc3c(c(C)n2)NC(c2c(F)cccc2F)=Nc2c(C)n[nH]c2-3)CCO1 [Example 51, (R)-4-(5-(2,6-difluorophenyl)-3,7-dimethyl-1,6-dihydropyrazolo[4,3-d]pyrido[4,3-f][1,3]diazepin-9-yl)-2-(ethoxymethyl)morpholine]
[1]
  CLhep predicted at 1 µM: 6.3 to 14.7 mL/min/kg
[2]
  IC50: < 2 nM
Caco-2 cells
  Caco-2 A2B (10^−6 cm/s): M (M (Moderate permeability)”: 1≤A2B (B2A)≤5)
  Caco-2 B2A (10^−6 cm/s): H (H (High permeability)”: A2B (B2A)>5)
  Caco-2 ER: N (N (Non-substrate)”: ER<2.5)

## Cc1ccc(-c2ccc3c(c2)-c2[nH]nc(C)c2N=C(c2c(F)cccc2F)N3)cn1 [Example 53, 5-(2,6-difluorophenyl)-3-methyl-9-(6-methyl-3-pyridyl)-1,6-dihydropyrazolo[4,3-d][1,3]benzodiazepine]
[1]
  CLhep predicted at 1 µM: 6.3 to 14.7 mL/min/kg
[2]
  IC50: < 2 nM
Caco-2 cells
  Caco-2 A2B (10^−6 cm/s): H (H (High permeability)”: A2B (B2A)>5)
  Caco-2 B2A (10^−6 cm/s): H (H (High permeability)”: A2B (B2A)>5)
  Caco-2 ER: N (N (Non-substrate)”: ER<2.5)

## Cc1n[nH]c2c1N=C(c1c(F)cccc1F)Nc1cnc(-n3ccc(C(F)(F)F)n3)cc1-2 [Example 15, 8-(2,6-difluorophenyl)-5-methyl-13-[3-(trifluoromethyl)pyrazol-1-yl]-3,4,7,9,12-pentazatricyclo[8.4.0.02,6]tetradeca-1(10),2(6),4,7,11,13-hexaene]
[1]
  CLhep predicted at 1 µM: 6.3 to 14.7 mL/min/kg
[2]
  IC50: < 2 nM
Caco-2 cells
  Caco-2 A2B (10^−6 cm/s): M (M (Moderate permeability)”: 1≤A2B (B2A)≤5)
  Caco-2 B2A (10^−6 cm/s): M (M (Moderate permeability)”: 1≤A2B (B2A)≤5)
  Caco-2 ER: N (N (Non-substrate)”: ER<2.5)

## Cc1n[nH]c2c1N=C(c1c(F)cccc1F)Nc1ccc(-c3ccn(C(F)F)n3)cc1-2 [Example 14, 9-[1-(difluoromethyl)pyrazol-3-yl]-5-(2,6-difluorophenyl)-3-methyl-1,6-dihydropyrazolo[4,3-d][1,3]benzodiazepine]
[1]
  CLhep predicted at 1 µM: > 14.7 mL/min/kg
[2]
  IC50: < 2 nM
Caco-2 cells
  Caco-2 A2B (10^−6 cm/s): H (H (High permeability)”: A2B (B2A)>5)
  Caco-2 B2A (10^−6 cm/s): H (H (High permeability)”: A2B (B2A)>5)
  Caco-2 ER: N (N (Non-substrate)”: ER<2.5)

## Cc1n[nH]c2c1N=C(c1c(F)cccc1F)Nc1c-2cc(N2CCC(C)(C#N)CC2)nc1C [Example 43, 1-[8-(2,6-difluorophenyl)-5,11-dimethyl-3,4,7,9,12-pentazatricyclo[8.4.0.02,6]tetradeca-1(10),2(6),4,7,11,13-hexaen-13-yl]-4-methyl-piperidine-4-carbonitrile]
[1]
  CLhep predicted at 1 µM: 6.3 to 14.7 mL/min/kg
[2]
  IC50: < 2 nM
Caco-2 cells
  Caco-2 A2B (10^−6 cm/s): H (H (High permeability)”: A2B (B2A)>5)
  Caco-2 B2A (10^−6 cm/s): H (H (High permeability)”: A2B (B2A)>5)
  Caco-2 ER: N (N (Non-substrate)”: ER<2.5)

## Cc1n[nH]c2c1N=C(c1c(F)cccc1F)Nc1c-2cc(N2C[C@H](C)O[C@@H](C)C2)nc1C [Example 39, (2S,6S)-4-[8-(2,6-difluorophenyl)-5,11-dimethyl-3,4,7,9,12-pentazatricyclo[8.4.0.02,6]tetradeca-1(10),2(6),4,7,11,13-hexaen-13-yl]-2,6-dimethyl-morpholine]
[1]
  CLhep predicted at 1 µM: 6.3 to 14.7 mL/min/kg
[2]
  IC50: < 2 nM
Caco-2 cells
  Caco-2 A2B (10^−6 cm/s): H (H (High permeability)”: A2B (B2A)>5)
  Caco-2 B2A (10^−6 cm/s): H (H (High permeability)”: A2B (B2A)>5)
  Caco-2 ER: N (N (Non-substrate)”: ER<2.5)

## Cc1n[nH]c2c1N=C(c1c(F)cccc1F)Nc1c-2cc(N2CCOCC2)nc1C(F)F [Example 44, 4-(7-(difluoromethyl)-5-(2,6-difluorophenyl)-3-methyl-1,6-dihydropyrazolo[4,3-d]pyrido[4,3-f][1,3]diazepin-9-yl)morpholine]
[1]
  CLhep predicted at 1 µM: 6.3 to 14.7 mL/min/kg
[2]
  IC50: < 2 nM
Caco-2 cells
  Caco-2 A2B (10^−6 cm/s): H (H (High permeability)”: A2B (B2A)>5)
  Caco-2 B2A (10^−6 cm/s): H (H (High permeability)”: A2B (B2A)>5)
  Caco-2 ER: N (N (Non-substrate)”: ER<2.5)

## Cc1n[nH]c2c1N=C(c1c(F)cccc1F)Nc1cnc(N3CCC(F)CC3)cc1-2 [Example 3, 8-(2,6-difluorophenyl)-13-(4-fluoro-1-piperidyl)-5-methyl-3,4,7,9,12-pentazatricyclo[8.4.0.02,6]tetradeca-1(10),2(6),4,7,11,13-hexaene]
[1]
  CLhep predicted at 1 µM: 6.3 to 14.7 mL/min/kg
[2]
  IC50: < 2 nM
Caco-2 cells
  Caco-2 A2B (10^−6 cm/s): H (H (High permeability)”: A2B (B2A)>5)
  Caco-2 B2A (10^−6 cm/s): H (H (High permeability)”: A2B (B2A)>5)
  Caco-2 ER: N (N (Non-substrate)”: ER<2.5)
